21 molecules from patent publication US20210277020A1, “HETEROCYCLIC COMPOUNDS AS MONOACYLGLYCEROL LIPASE INHIBITORS” (Hoffmann-La Roche Inc., priority 2018, published 2021) can be followed below.

SMILES strings stand for the structures.

The experiment has as its target T1, MAGL (Homo sapiens, UniProt Q99685).
T1 sequence (Q99685 1-303): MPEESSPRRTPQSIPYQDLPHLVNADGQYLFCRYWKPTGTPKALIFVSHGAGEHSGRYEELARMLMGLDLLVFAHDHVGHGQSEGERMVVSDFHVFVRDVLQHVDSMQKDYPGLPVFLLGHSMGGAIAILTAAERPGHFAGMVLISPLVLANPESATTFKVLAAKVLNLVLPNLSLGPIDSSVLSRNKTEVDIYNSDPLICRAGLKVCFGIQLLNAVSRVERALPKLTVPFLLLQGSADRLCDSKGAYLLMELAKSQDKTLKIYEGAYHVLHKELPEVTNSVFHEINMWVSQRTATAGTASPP
In words: 2-AG assay: MAGL inhibition followed by hydrolysis of 2-arachidonoylglycerol to arachidonic acid, mass spectrometry. The format is biochemical. The conditions noted are these: measured in 2-AG assay (footnote [a]); substrate 2-arachidonoylglycerol 8 μM, 30 min at RT. The source says: Alternatively, compounds were profiled for MAGL inhibitory activity by determining the enzymatic activity by following the hydrolysis of the natural substrate, 2-arachidonoylglycerol, resulting in arachidonic acid, which can be followed by mass spectrometry. This assay is hereinafter abbreviated “2-AG assay”.
Detection by mass spectrometry in the present 2-AG assay has the advantage over known optical assays that the natural enzyme substrate, 2-arachidonoylglycerol, can be used instead of structurally unrelated compounds needed for optical readouts (such as 4-NPA). It thereby delivers more relevant data for activity determination, reduces false positives and generally adds to data quality. In addition, this assay reduces the analysis time from about 10 minutes per sample with standard methods to under 10 seconds per sample. This allows for using the present 2-AG assay in a method for high throughput screening of compounds for their MAGL inhibitory activity.
The 2-AG assay was carried out in 384 well assay plates (PP, Greiner Cat #784201) in a total volume of 20 μL. Compound dilutions were made in 100% DMSO (VWR Chemicals 23500.297) in a polypropylene plate in 3-fold dilution steps to give a final concentration range in the assay from 12.5 μM to […]. 0.25 μL compound dilutions (100% DMSO) were added to 9 μL MAGL in assay buffer (50 mM TRIS (GIBCO, 15567-027), 1 mM EDTA (Fluka, 03690-100 mL), 0.01% (v/v) Tween. After shaking, the plate was incubated for 15 min at RT. To start the reaction, 10 μL 2-arachidonoylglycerol in assay buffer was added. The final concentrations in the assay was […] and 8 μM 2-arachidonoylglyerol. After shaking and 30 min incubation at RT, the reaction was quenched by the addition of 40 μL of acetonitrile containing 4 μM of d8-arachidonic acid. The amount of arachidonic acid was traced by an online SPE system (Agilent Rapidfire) coupled to a triple quadrupole mass spectrometer (Agilent 6460). A C18 SPE cartridge (G9205A) was used in an acetonitrile/water liquid setup. The mass spectrometer was operated in negative electrospray mode following the mass transitions 303.1→259.1 for arachidonic acid and 311.1→267.0 for d8-arachidonic acid. The activity of the compounds was calculated based on the ratio of intensities [arachidonic acid/d8-arachidonic acid].
In a preferred embodiment, the method for determining the MAGL inhibitory activity of a test compound according to the invention, comprises: • (i) providing a solution of a test compound; • (ii) adding the solution of step (i) to a solution of MAGL; • (iii) shaking the mixture obtained from step (ii); • (iv) incubating the mixture obtained from step (iii); • (v) adding a solution of 2-arachidonoylglycerol; • (vi) incubating the mixture obtained from step (v); • (vii) adding a solution of d8-arachidonic acid; and • (viii) determining the ratio of intensities arachidonic acid/d8-arachidonic acid using a mass spectrometer.
As for `N#Cc1cccc(Cl)c1C#CC1CN(C(=O)N2CC[C@@H]3OCC(=O)N[C@@H]3C2)C1` [Example 176, 2-[2-[1-[(4aR,8aS)-3-oxo-4,4a,5,7,8,8a-Hexahydropyrido[4,3-b][1,4]oxazine-6-carbonyl]azetidin-3-yl]ethynyl]-3-chlorobenzonitrile], inhibition was half-maximal at 50 nM (IC50). Consider `CN(CC1CN(C(=O)N2CC[C@@H]3OCC(=O)N[C@@H]3C2)C1)C(c1ccc(C(F)(F)F)cc1)C(F)(F)F` (stereo partly drawn) [Example 80, (4aR,8aS)-6-(3-((Methyl(2,2,2-trifluoro-1-(4-(trifluoromethyl)phenyl)ethyl)amino)methyl)azetidine-1-carbonyl)hexahydro-2H-pyrido[4,3-b][1,4]oxazin-3 (4H)-one], for which the concentration for half-maximal inhibition (IC50) (in general, the concentration at which inhibition is half-maximal) was found to be 4 nM.

The molecule `O=C1CO[C@H]2CCN(C(=O)N3CC(SCc4ccc(C(F)(F)F)cc4F)C3)C[C@H]2N1` [Example 156, (4aR,8aS)-6-[3-[[2-Fluoro-4-(trifluoromethyl)phenyl]methylsulfanyl]azetidine-1-carbonyl]-4,4a,5,7,8,8a-hexahydropyrido[4,3-b][1,4]oxazin-3-one] displayed a 50% inhibitory concentration (IC50) of 7 nM.

For the molecule `O=C1CO[C@H]2CCN(C(=O)N3CC(C#Cc4ccc(F)cc4Cl)C3)C[C@H]2N1` [Example 135, (+)-(4aR,8aS)-6-[3-[2-(2-Chloro-4-fluorophenyl)ethynyl]azetidine-1-carbonyl]-4,4a,5,7,8,8a-hexahydropyrido[4,3-b][1,4]oxazin-3-one], inhibition was half-maximal at 13 nM (IC50). `O=C1CO[C@H]2CCN(C(=O)N3CCC(C#Cc4ccccc4Cl)CC3)C[C@H]2N1` [Example 125, (+)-(4aR,8aS)-6-[4-[2-(2-Chlorophenyl)ethynyl]piperidine-1-carbonyl]-4,4a,5,7,8,8a-hexahydropyrido[4,3-b][1,4]oxazin-3-one]: the IC50 is 30 nM. For the molecule `CN(C(=O)Cc1cc(C(F)(F)F)ccc1Cl)C1CCN(C(=O)N2CC[C@@H]3OCC(=O)N[C@@H]3C2)CC1` [Example 84, N-[1-[(4aR,8aS)-3-oxo-4,4a,5,7,8,8a-hexahydropyrido[4,3-b][1,4]oxazine-6-carbonyl]piperidin-4-yl]-2-[2-chloro-5-(trifluoromethyl)phenyl]-N-methylacetamide], the IC50 amounted to 1140 nM. Molecule `O=C1CO[C@H]2CCN(C(=O)N3CC(C#Cc4ccccc4Cl)C3)C[C@H]2N1` [Example 133] displayed a half-inhibitory concentration (IC50) of 9 nM. `O=C1CO[C@H]2CCN(C(=O)N3CC(C#Cc4ccc(C(F)(F)F)cc4)C3)C[C@H]2N1` [Example 167, (4aR,8aS)-6-[3-[2-[4-(Trifluoromethyl)phenyl]ethynyl]azetidine-1-carbonyl]-4,4a,5,7,8,8a-hexahydropyrido[4,3-b][1,4]oxazin-3-one] came in with an IC50 of 10 nM.

Take `O=C1CO[C@H]2CCN(C(=O)N3CCC(O)(C#Cc4ccccc4Cl)CC3)C[C@H]2N1` [Example 132, (+)-(4aR,8aS)-6-[4-[2-(2-Chlorophenyl)ethynyl]-4-hydroxypiperidine-1-carbonyl]-4,4a,5,7,8,8a-hexahydropyrido[4,3-b][1,4]oxazin-3-one]: the IC50 was 889 nM. With `O=C1CO[C@H]2CCN(C(=O)N3CC(C#Cc4ccc(C(F)(F)F)cc4F)C3)C[C@H]2N1` [Example 158, (4aR,8aS)-6-[3-[2-[2-Fluoro-4-(trifluoromethyl)phenyl]ethynyl]azetidine-1-carbonyl]-4,4a,5,7,8,8a-hexahydropyrido[4,3-b][1,4]oxazin-3-one], the midpoint of inhibition, the IC50, lay at 5 nM. `O=C1CO[C@H]2CCN(C(=O)N3CC(C#Cc4c(F)cccc4Cl)C3)C[C@H]2N1` [Example 161, (4aR,8aS)-6-(3-((2-Chloro-6-fluorophenyl)ethynyl)azetidine-1-carbonyl)hexahydro-2H-pyrido[4,3-b][1,4]oxazin-3(4H)-one] gave a 50% inhibitory concentration (IC50) of 5 nM. Consider `O=C1CO[C@H]2CCN(C(=O)N3CC(C[S+]([O-])c4ccc(C(F)(F)F)cc4Cl)C3)C[C@H]2N1` (single isomer, unassigned) [Example 155], for which the midpoint of inhibition, the IC50, lay at 1980 nM.

`O=C1CO[C@H]2CCN(C(=O)N3CC(C#Cc4cc(F)ccc4Cl)C3)C[C@H]2N1` [Example 185, (4aR,8aS)-6-[3-[2-(2-Chloro-5-fluorophenyl)ethynyl]azetidine-1-carbonyl]-4,4a,5,7,8,8a-hexahydropyrido[4,3-b][1,4]oxazin-3-one] gave a half-inhibitory concentration (IC50) of 36 nM.

`O=C1CO[C@H]2CCN(C(=O)N3CC(CNC(c4ccccc4Cl)C(F)(F)F)C3)C[C@H]2N1` (stereo partly drawn) [Example 70, (4aR,8aS)-6-(3-(((1-(2-Chlorophenyl)-2,2,2-trifluoroethyl)amino)methyl)azetidine-1-carbonyl)hexahydro-2H-pyrido[4,3-b][1,4]oxazin-3(4H)-one] had an IC50 of 12 nM.

The molecule `O=C1CO[C@H]2CCN(C(=O)N3CC(CS(=O)(=O)c4ccc(C(F)(F)F)cc4Cl)C3)C[C@H]2N1` [Example 152, (4aR,8aS)-6-[3-[[2-Chloro-4-(trifluoromethyl)phenyl]sulfonylmethyl]azetidine-1-carbonyl]-4,4a,5,7,8,8a-hexahydropyrido[4,3-b][1,4]oxazin-3-one] had an IC50 of 655 nM. As for `O=C1CO[C@H]2CCN(C(=O)N3CC(SCc4c(F)cccc4C(F)(F)F)C3)C[C@H]2N1` [Example 295, (4aR,8aS)-6-(3-((2-Fluoro-6-(trifluoromethyl)benzyl)thio)azetidine-1-carbonyl)hexahydro-2H-pyrido[4,3-b][1,4]oxazin-3(4H)-one], the concentration for half-maximal inhibition (IC50) is 23 nM. In the case of `O=C1CO[C@H]2CCN(C(=O)N3CC(C#Cc4ccc(OC(F)F)cc4)C3)C[C@H]2N1` [Example 177, (4aR,8aS)-6-[3-[2-[4-(Difluoromethoxy)phenyl]ethynyl]azetidine-1-carbonyl]-4,4a,5,7,8,8a-hexahydropyrido[4,3-b][1,4]oxazin-3-one] it was 22 nM; in that of `CN(C(=O)C1(c2cccc(C(F)(F)F)c2)CC1)C1CCN(C(=O)N2CC[C@@H]3OCC(=O)N[C@@H]3C2)CC1` [Example 82], 349 nM. On to `O=C1CO[C@H]2CCN(C(=O)N3CC(C#Cc4ccc(C(F)(F)F)cc4Cl)C3)C[C@H]2N1` [Example 200, (4aR,8aS)-6-(3-((2-Chloro-4-(trifluoromethyl)phenyl)ethynyl)azetidine-1-carbonyl)hexahydro-2H-pyrido[4,3-b][1,4]oxazin-3(4H)-one], for which the IC50 was determined as 2 nM. `O=C1CO[C@H]2CCN(C(=O)N3CC(C[S+]([O-])c4ccc(C(F)(F)F)cc4Cl)C3)C[C@H]2N1` (mixture of isomers) [Example 153, (4aR,8aS)-6-[3-[[2-Chloro-4-(trifluoromethyl)phenyl]sulfinylmethyl]azetidine-1-carbonyl]-4,4a,5,7,8,8a-hexahydropyrido[4,3-b][1,4]oxazin-3-one]: half-maximal inhibition (IC50) was put at 318 nM.

Regarding `O=C1CO[C@H]2CCN(C(=O)N3CCC(C#Cc4ccc(Cl)cc4)CC3)C[C@H]2N1` [Example 130, (+)-(4aR,8aS)-6-[4-[2-(4-Chlorophenyl)ethynyl]piperidine-1-carbonyl]-4,4a,5,7,8,8a-hexahydropyrido[4,3-b][1,4]oxazin-3-one], 82 nM corresponded to half-maximal inhibition (IC50).
